Measured values: US9249208B2, “Citrulline peptides derived from fibrin and recognized by rheumatoid arthritis specific autoantibodies, and the use thereof” (Biomerieux, priority 2004, dated 2016)
Marks after values point to notes of the source that are not given here. Where no end group is shown, it is not given here. [ ]: non-standard residue; d: D form. Cit = NC(=O)NCCC[C@H](N)C(=O)O

Legend:
Format in all cases: binding, human
[1] = system: anti-citrullinated protein autoantibodies (ACPAs); assay: ELISA of reactive citrullinated fibrin peptides with the 20 individual sera of mixtures A and B; conditions: for Number of positive sera: sera with delta OD not <0.25 out of sera tested (20, or 10 of mixture A only); for delta OD: best coating buffer per peptide
Method: The 14 peptides carrying the most reactive epitopes (delta OD≧0.5 for one or other of the mixtures of serum (A and B) with at least one of the three coating buffers) were tested independently with the 20 sera constituting the mixtures A and B, in order to evaluate the reactivity profile of each of these peptides. The tests were carried out by ELISA under the same conditions as in Example 2 above, with the exception that, for each pair of peptides, the coating buffer selected was that that had made it possible to obtain the strongest reactivity with respect to this peptide during the screening (the buffer for which the sum of the delta ODs obtained respectively for the serum mixtures A and B was at a maximum). […] Thus, for each serum, the dilution that made it possible to obtain an OD of 1 by ELISA on deiminated fibrinogen was selected (Nogueira L, 2002, mentioned above). The dilutions ranged from 1/20 to 1/2700.

[2] = system: anti-citrullinated protein autoantibodies (ACPAs); assay: ELISA of citrullinated/native fibrin peptide pairs with serum mixtures A and B and control mixture (delta OD); conditions: mean of two determinations
Method: Each pair of peptides (citrullinated and noncitrullinated) was assayed by ELISA with a mixture, in equal parts, of 10 sera having no ACPAs (control mixture) and with the 2 mixtures A and B described in Example 1.
Each pair of peptides (native and citrullinated form) was tested on the same plate and a pair of control peptides—citrullinated “filaggrin” peptide cfc6 and its corresponding native peptide cf0 (Schellekens G A, 1998, mentioned above)—was included in each experiment, which made it possible to calculate an inter-assay coefficient of variation and to perform corrections.
All the incubations were carried out for 1 h at 4° C. and were followed by washing in PBS-0.1% Tween. The peroxidase activity was visualized with a solution of ortho-phenylenediamine (2 mg/ml—Sigma) in hydrogen peroxide (0.03%—Sigma). The reaction was stopped after 5 minutes by adding 4M sulfuric acid, and the optical density (OD) at 492 nm was measured by virtue of an automatic spectrophotometer (Multiskan, Thermo Labsystems).
The specific reactivity of the mixtures of sera with regard to the citrullinated peptides corresponded to the difference between the OD obtained with the citrullinated peptide and that obtained with the corresponding native peptide (delta OD). The results correspond to the mean of two determinations. Any citrullinated peptide making it possible to obtain a delta OD of greater than 0.250 for at least one of the two mixtures A and B after coating in at least one of the three buffers, was considered to be reactive.

[3] = system: anti-citrullinated protein autoantibodies (ACPAs); assay: ELISA comparing amidated and nonamidated β60-74Cit60,72,74 with serum mixtures A and B; conditions: for delta OD: coating in PBS, versus noncitrullinated β60-74, mean of two experiments
From the text: ELISA plates were coated with the peptide β60-74Cit60,72,74, in which the C-terminal function of the carboxy-terminal citrullyl residue is not amidated (form carrying a terminal COOH function, hereinafter referred to as “nonamidated form”), with the peptide […], in which the C-terminal function of the carboxy-terminal citrullyl residue is amidated (form carrying a terminal CONH2 function, hereinafter referred to as “amidated form”) and the noncitrullinated peptide β60-74 (in which the C-terminal function of the carboxy-terminal arginyl residue is not amidated), all diluted in PBS. The serum mixtures A and B described in Example 1 were tested according to the method described in Example 2. As in Example 2, the specific reactivity of the peptide in nonamidated form or in amidated form corresponded to the difference between the OD obtained with these two citrullinated peptides and that obtained with the noncitrullinated peptide β60-74. […] The results correspond to the mean of two experiments, each comprising two determinations.

[4] = Mixture A of sera 1/50, coating buffer PBS pH 7.4
[5] = Mixture A of sera 1/50, coating buffer acetate pH 5.0
[6] = Mixture A of sera 1/50, coating buffer carbonate pH 9.0
[7] = Mixture B of sera 1/50, coating buffer PBS pH 7.4
[8] = Mixture B of sera 1/50, coating buffer acetate pH 5.0
[9] = Mixture B of sera 1/50, coating buffer carbonate pH 9.0

α588-602Cit591: citrullinated synthetic peptide, fibrin α-chain residues 588-602 (second series) (SYN[Cit]GDSTFESKSYK)
Number of positive sera [1]: 2/20 | delta OD ([1]; serum 97.0169, dilution 1/400): 1.34 | delta OD ([1]; serum 97.1795, dilution 1/50): 0.79 | delta OD (citrullinated minus native peptide, 492 nm) [2, 4]: 0.16 | delta OD (citrullinated minus native peptide, 492 nm) [2, 5]: 0.05 | delta OD (citrullinated minus native peptide, 492 nm) [2, 6]: 0.36 | delta OD (citrullinated minus native peptide, 492 nm) [2, 7]: 0.33 | delta OD (citrullinated minus native peptide, 492 nm) [2, 8]: 0.06 | delta OD (citrullinated minus native peptide, 492 nm) [2, 9]: 0.67

α621-635Cit621,627,630: citrullinated synthetic peptide, fibrin α-chain residues 621-635; fits SEQ ID NO: 12 X1GHAKSX2PVX3GIHTS ([Cit]GHAKS[Cit]PV[Cit]GIHTS)
Number of positive sera [1]: 10/20 | delta OD ([1]; serum 97.0169, dilution 1/400): 0.80 | delta OD ([1]; serum 97.0244, dilution 1/2700): 0.50 | delta OD ([1]; serum 97.0311, dilution 1/200): 0.37 | delta OD ([1]; serum 97.0388, dilution 1/50): 2.71 | delta OD ([1]; serum 97.0468, dilution 1/700): 0.81 | delta OD ([1]; serum 97.0796, dilution 1/500): 0.69 | delta OD ([1]; serum 97.0907, dilution 1/300): 1.04 | delta OD ([1]; serum 97.1210, dilution 1/300): 0.37 | delta OD ([1]; serum 97.1474, dilution 1/20): 0.59 | delta OD ([1]; serum 97.1548, dilution 1/60): 3.29 | delta OD (citrullinated minus native peptide, 492 nm) [2, 4]: 1.57 | delta OD (citrullinated minus native peptide, 492 nm) [2, 5]: 0.25 | delta OD (citrullinated minus native peptide, 492 nm) [2, 6]: 1.17 | delta OD (citrullinated minus native peptide, 492 nm) [2, 7]: 1.51 | delta OD (citrullinated minus native peptide, 492 nm) [2, 8]: 0.18 | delta OD (citrullinated minus native peptide, 492 nm) [2, 9]: 1.20

β60-74Cit60,72,74: citrullinated synthetic peptide, fibrin β-chain residues 60-74, C-terminal citrullyl amidated; fits SEQ ID NO: 1 X1PAPPPISGGGYX2AX3 (XPAPPPISGGGYXAX; HELM PEPTIDE1{[Cit].P.A.P.P.P.I.S.G.G.G.Y.[Cit].A.[Cit].[am]}$$$$V2.0; N-terminus assumed; SMILES CC[C@H](C)[C@H](NC(=O)[C@@H]1CCCN1C(=O)[C@@H]1CCCN1C(=O)[C@@H]1CCCN1C(=O)[C@H](C)NC(=O)[C@@H]1CCCN1C(=O)[C@@H](N)CCCNC(N)=O)C(=O)N[C@@H](CO)C(=O)NCC(=O)NCC(=O)NCC(=O)N[C@@H](Cc1ccc(O)cc1)C(=O)N[C@@H](CCCNC(N)=O)C(=O)N[C@@H](C)C(=O)N[C@@H](CCCNC(N)=O)C(N)=O)
delta OD ([3]; Mixture A): 2.13 | delta OD ([3]; Mixture B): 2.74 | reactivity of amidated versus nonamidated form ([3]; serum mixtures A and B, PBS coating): clearly greater than that of the nonamidated form | Number of positive sera [1]: 14/20 | delta OD ([1]; serum 95.0256, dilution 1/35): 3.48 | delta OD ([1]; serum 97.0169, dilution 1/400): 0.31 | delta OD ([1]; serum 97.0244, dilution 1/2700): 1.23 | delta OD ([1]; serum 97.0311, dilution 1/200): 1.93 | delta OD ([1]; serum 97.0323, dilution 1/120): 1.73 | delta OD ([1]; serum 97.0459, dilution 1/60): 0.71^c | delta OD ([1]; serum 97.0468, dilution 1/700): 1.08 | delta OD ([1]; serum 97.0506, dilution 1/75): 1.93 | delta OD ([1]; serum 97.0794, dilution 1/50): 0.75 | delta OD ([1]; serum 97.0796, dilution 1/500): 0.36 | delta OD ([1]; serum 97.0907, dilution 1/300): 1.17 | delta OD ([1]; serum 97.1210, dilution 1/300): 3.33 | delta OD ([1]; serum 97.1474, dilution 1/20): 0.37 | delta OD ([1]; serum 97.1548, dilution 1/60): 1.48 | delta OD (citrullinated minus native peptide, 492 nm) [2, 4]: 2.06 | delta OD (citrullinated minus native peptide, 492 nm) [2, 5]: 1.02 | delta OD (citrullinated minus native peptide, 492 nm) [2, 6]: 1.27 | delta OD (citrullinated minus native peptide, 492 nm) [2, 7]: 2.69 | delta OD (citrullinated minus native peptide, 492 nm) [2, 8]: 2.83 | delta OD (citrullinated minus native peptide, 492 nm) [2, 9]: 2.72

β60-74Cit60, 72, 74 nonamidated: citrullinated synthetic peptide, fibrin β-chain residues 60-74, C-terminal citrullyl not amidated (terminal COOH) (RPAPPPISGGGYRAR; HELM PEPTIDE1{[Cit].P.A.P.P.P.I.S.G.G.G.Y.[Cit].A.[Cit]}$$$$V2.0; N-terminus assumed; SMILES CC[C@H](C)[C@H](NC(=O)[C@@H]1CCCN1C(=O)[C@@H]1CCCN1C(=O)[C@@H]1CCCN1C(=O)[C@H](C)NC(=O)[C@@H]1CCCN1C(=O)[C@@H](N)CCCNC(N)=O)C(=O)N[C@@H](CO)C(=O)NCC(=O)NCC(=O)NCC(=O)N[C@@H](Cc1ccc(O)cc1)C(=O)N[C@@H](CCCNC(N)=O)C(=O)N[C@@H](C)C(=O)N[C@@H](CCCNC(N)=O)C(=O)O)
delta OD ([3]; Mixture A): 0.30 | delta OD ([3]; Mixture B): 1.16

β210-224Cit224: citrullinated synthetic peptide, fibrin β-chain residues 210-224 (QKLESDVSAQMEYC[Cit])
Number of positive sera [1]: 6/20 | delta OD ([1]; serum 97.0311, dilution 1/200): 0.46 | delta OD ([1]; serum 97.0323, dilution 1/120): 0.36 | delta OD ([1]; serum 97.0796, dilution 1/500): 0.67 | delta OD ([1]; serum 97.0907, dilution 1/300): 0.33 | delta OD ([1]; serum 97.1210, dilution 1/300): 0.72 | delta OD ([1]; serum 97.1795, dilution 1/50): 0.49 | delta OD (citrullinated minus native peptide, 492 nm) [2, 4]: 0.29 | delta OD (citrullinated minus native peptide, 492 nm) [2, 5]: 0.25 | delta OD (citrullinated minus native peptide, 492 nm) [2, 6]: 1.14 | delta OD (citrullinated minus native peptide, 492 nm) [2, 7]: 0.60 | delta OD (citrullinated minus native peptide, 492 nm) [2, 8]: 0.00 | delta OD (citrullinated minus native peptide, 492 nm) [2, 9]: 1.56

β281-295Cit285,294: citrullinated synthetic peptide, fibrin β-chain residues 281-295 (second series) (VIQN[Cit]QDGSVDFG[Cit]K)
Number of positive sera [1]: 6/20 | delta OD ([1]; serum 97.0323, dilution 1/120): 1.16 | delta OD ([1]; serum 97.0459, dilution 1/60): 2.22 | delta OD ([1]; serum 97.0506, dilution 1/75): 1.80 | delta OD ([1]; serum 97.0524, dilution 1/200): 0.25 | delta OD ([1]; serum 97.0794, dilution 1/50): 0.26 | delta OD ([1]; serum 97.1474, dilution 1/20): 0.36 | delta OD (citrullinated minus native peptide, 492 nm) [2, 4]: 0.60 | delta OD (citrullinated minus native peptide, 492 nm) [2, 5]: 0.12 | delta OD (citrullinated minus native peptide, 492 nm) [2, 6]: 0.61 | delta OD (citrullinated minus native peptide, 492 nm) [2, 7]: 0.75 | delta OD (citrullinated minus native peptide, 492 nm) [2, 8]: 0.11 | delta OD (citrullinated minus native peptide, 492 nm) [2, 9]: 0.71

β433-447Cit436,445: citrullinated synthetic peptide, fibrin β-chain residues 433-447 (second series) (WYN[Cit]CHAANPNG[Cit]YY)
Number of positive sera [1]: 2/10 | delta OD ([1]; serum 97.0388, dilution 1/50): 1.14 | delta OD ([1]; serum 97.0796, dilution 1/500): 0.71 | delta OD (citrullinated minus native peptide, 492 nm) [2, 4]: 0.58 | delta OD (citrullinated minus native peptide, 492 nm) [2, 5]: 0.41 | delta OD (citrullinated minus native peptide, 492 nm) [2, 6]: 0.67 | delta OD (citrullinated minus native peptide, 492 nm) [2, 7]: 0.00 | delta OD (citrullinated minus native peptide, 492 nm) [2, 8]: 0.00 | delta OD (citrullinated minus native peptide, 492 nm) [2, 9]: 0.03
